The values below come from patent publication US8772489B2, “Optically active 2-hydroxy tetrahydrothienopyridine derivatives, preparation method and use in manufacture of medicament thereof” (Jiangsu Vcare PharmaTech Co. Ltd., priority 2010, dated 2014).

Read-outs that look alike come from different tables or passages of the source.

For data set [1], the system named is platelet aggregation. The experiment in a line: animal or person. The conditions noted are these: Rattus norvegicus, read-out: Aggregation inhibition (%). In kind it is in vivo. An excerpt: The positive control and the test compounds (prepared in the above examples) were formulated in 0.5% CMC-Na (carboxymethylcellulose sodium) into suspensions for administration to animals.
Animals: male SD rats, weighed about 250 g, and supplied by Shanghai Super-B&K Laboratory Animal Corp. Ltd. Animal certificate No.: 2008001605451, and license No.: SCXK (Hu); SCXK (Hu) 2008-0016.
Instruments: a centrifuge (80-2 bench top low-speed centrifuge), an automatic platelet aggregation tester (STELLEXLG-PAPER-I platelet coagulation/aggregation analyzer), and others.
Methods: the pharmacological activity test of the compounds of the present invention for platelet aggregation was performed following Born's turbidimetric method (Nature, 1962, 194(4832): 927). An agglomeration-promoting substance, adenosine diphosphate (ADP), was added to a platelet rich plasma (PRP), and stirred to allow platelets to aggregate. […] This experiment can be used to evaluate the platelet aggregation effect induced by the test compounds administrated in-vivo or in-vitro.
The PRP was adjusted with a platelet poor plasma (PPP) to maintain the platelet counts at […]. The PRP was taken into a test cup, and incubated at 37° C. for 10 min. Light transmission was adjusted to 0% with PRP and to 100% with PPP for each measurement. By using ADP (with a final concentration of 5 μM) as an inducer, the platelet aggregation percentages were measured through the turbidimetric method using a platelet aggregation tester, and statistically compared by t-test. The platelet aggregation inhibition was calculated by the equation: platelet aggregation inhibition (%)=[1−(aggregation percent in dosed tube/aggregation percent in control tube)]×100%.

For data set [2], the target named is human carboxylesterase 1 (hCE1) (Homo sapiens, UniProt P23141). The conditions noted are these: in vivo, J Pharmacol Exp Ther, 2006, 319: 1467; cited from earlier work.
human carboxylesterase 1 (hCE1), sequence (P23141 18-567): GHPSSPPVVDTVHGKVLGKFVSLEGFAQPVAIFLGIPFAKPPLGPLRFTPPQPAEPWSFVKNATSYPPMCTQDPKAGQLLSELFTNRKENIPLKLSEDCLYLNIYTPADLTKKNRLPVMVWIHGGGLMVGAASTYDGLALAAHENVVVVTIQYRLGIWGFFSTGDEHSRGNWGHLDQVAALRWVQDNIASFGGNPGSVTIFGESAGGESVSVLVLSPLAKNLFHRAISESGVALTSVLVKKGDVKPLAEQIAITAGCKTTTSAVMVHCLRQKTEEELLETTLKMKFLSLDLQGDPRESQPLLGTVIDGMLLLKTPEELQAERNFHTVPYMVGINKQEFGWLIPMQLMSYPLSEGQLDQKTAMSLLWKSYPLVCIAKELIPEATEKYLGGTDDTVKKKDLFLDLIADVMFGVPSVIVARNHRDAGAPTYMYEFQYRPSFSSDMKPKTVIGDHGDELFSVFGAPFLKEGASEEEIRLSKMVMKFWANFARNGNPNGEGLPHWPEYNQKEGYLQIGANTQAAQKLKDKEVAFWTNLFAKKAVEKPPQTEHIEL
The mark [3] stands for this setting: male SD rats, oral gavage 3 mg/kg, blood after 2 hrs, ADP 5 μM.

For the molecule `COC(=O)[C@H](c1ccccc1Cl)N1CCc2sc(OC(=O)c3ccccc3)cc2C1` [Compound I-1, (S)-Methyl 2-(2-benzoyloxy-6,7-dihydrothieno[3,2-c]pyridin-5(4H)-yl)-2-(2-chlorophenyl)-acetate], the melting point lay within 84 to 86 °C. Further, in data set [1] (setting [3]), the inhibition at 3 mg/kg was determined as 41.1%. For `COC(=O)[C@H](c1ccccc1Cl)N1CCc2sc(OC(=O)c3cccnc3)cc2C1` [Compound I-6, (S)-methyl 2-(2-nicotinoyloxy-6,7-dihydrothieno[3,2-c]pyridin-5(4H)-yl)-2-(2-chlorophenyl)-acetate], in that order: 92 to 94 °C and 31.3%. In the same order, the values of `CCC(C)(C)C(=O)Oc1cc2c(s1)CCN([C@H](C(=O)OC)c1ccccc1Cl)C2` [Compound I-8, (S)-Methyl 2-(2-(2,2-dimethylbutanoyloxy)-6,7-dihydrothieno[3,2-c]pyridin-5(4H)-yl)-2-(2-chlorophenyl)-acetate] are 98 to 100 °C and 35.7%. `COC(=O)[C@H](c1ccccc1Cl)N1CCc2sc(OC(=O)/C=C/c3ccccc3)cc2C1` [Compound I-9, (S)-methyl 2-(2-cinnamoyloxy-6,7-dihydrothieno[3,2-c]pyridin-5(4H)-yl)-2-(2-chlorophenyl)-acetate] displayed a melting point of 122 to 124 °C. Moreover, the inhibition at 3 mg/kg in data set [1] (setting [3]) came to 30.3%. The molecule `COC(=O)[C@H](c1ccccc1Cl)N1CCc2sc(OC(=O)c3ccc([N+](=O)[O-])cc3)cc2C1` [Compound I-10, (S)-methyl 2-(2-(4-nitrobenzoyloxy)-6,7-dihydrothieno[3,2-c]pyridin-5(4H)-yl)-2-(2-chlorophenyl)-acetate] returned a melting point of 100 to 102 °C. Moreover, in data set [1] (setting [3]), the inhibition at 3 mg/kg was 36.8%. `COC(=O)[C@H](c1ccccc1Cl)N1CCc2sc(OC(=O)Cc3ccccc3)cc2C1` [Compound I-12, (S)-Methyl 2-(2-phenylacetoxy-6,7-dihydrothieno[3,2-c]pyridin-5(4H)-yl)-2-(2-chlorophenyl)-acetate]: the inhibition at 3 mg/kg in data set [1] (setting [3]) came to 18.3%. In turn, `COC(=O)[C@H](c1ccccc1Cl)N1CCc2sc(OC(=O)COc3ccccc3)cc2C1` [Compound I-13, (S)-Methyl 2-(2-(phenoxyacetoxy)-6,7-dihydrothieno[3,2-c]pyridin-5(4H)-yl)-2-(2-chlorophenyl)-acetate] yielded a melting point of 104 to 106 °C. For the same molecule, in data set [1] (setting [3]), the inhibition at 3 mg/kg is 10.1%. In the same order, the values of `CCOC(=O)Oc1cc2c(s1)CCN([C@H](C(=O)OC)c1ccccc1Cl)C2` [Compound I-14, (S)-Methyl 2-(2-(ethoxycarbonyloxy)-6,7-dihydrothieno[3,2-c]pyridin-5(4H)-yl)-2-(2-chlorophenyl)-acetate] are 42 to 44 °C and 62.9%. `COC(=O)[C@H](c1ccccc1Cl)N1CCc2sc(OC(=O)OCC(C)C)cc2C1` [Compound I-15, (S)-Methyl 2-(2-(isobutoxycarbonyloxy)-6,7-dihydrothieno[3,2-c]pyridin-5(4H)-yl)-2-(2-chlorophenyl)-acetate]: the inhibition at 3 mg/kg in data set [1] (setting [3]) worked out at 45.3%. Same read-out and setting: for `COC(=O)[C@H](c1ccccc1Cl)N1CCc2sc(OC(=O)OC(C)C)cc2C1` [Compound I-16, (S)-Methyl 2-(2-(isopropoxycarbonyloxy)-6,7-dihydrothieno[3,2-c]pyridin-5(4H)-yl)-2-(2-chlorophenyl)-acetate] the value was 52.7%.

For `COC(=O)[C@H](c1ccccc1Cl)N1CCc2sc(OC(=O)N(C)C)cc2C1` [Compound I-18, (S)-Methyl 2-(2-(N,N-dimethylcarbamoyloxy)-6,7-dihydrothieno[3,2-c]pyridin-5(4H)-yl)-2-(2-chlorophenyl)-acetate], the melting point is 96 to 98 °C. Besides, in data set [1] (po, 2 h), the inhibition at 3 mg/kg was 48.2%. `COC(=O)[C@H](c1ccccc1F)N1CCc2sc(OC(C)=O)cc2C1` [Compound I-19, (S)-Methyl 2-(2-acetoxy-6,7-dihydrothieno[3,2-c]pyridin-5 (4H)-yl)-2-(2-fluorophenyl)-acetate]: the inhibition at 3 mg/kg in data set [1] (setting [3]) was 63.5%. On the same count and under the same terms, for `COC(=O)[C@H](c1ccc(Cl)cc1)N1CCc2sc(OC(C)=O)cc2C1` [Compound I-20, (S)-Methyl 2-(2-acetoxy-6,7-dihydrothieno[3,2-c]pyridin-5(4H)-yl)-2-(4-chlorophenyl)-acetate] the value was 17.6%; for `COC(=O)[C@H](c1ccccc1)N1CCc2sc(OC(C)=O)cc2C1` [Compound I-21, (S)-Methyl 2-(2-acetoxy-6,7-dihydrothieno[3,2-c]pyridin-5 (4H)-yl)-2-phenyl-acetate], 9.1%. Regarding `COC(=O)[C@H](c1ccccc1Cl)N1CCc2sc(OC(=O)N3CCCC3)cc2C1` [Compound I-22, (S)-Methyl 2-(2-(pyrrolidine-1-carbonyloxy)-6,7-dihydrothieno[3,2-c]pyridin-5(4H)-yl)-2-(2-chlorophenyl)-acetate], in data set [1] (po, 2 h), the inhibition at 3 mg/kg worked out at 20.3%. As to `COC(=O)[C@@H](c1ccccc1Cl)N1CCc2sc(OC(C)=O)cc2C1` [I-2′], the inhibition at 3 mg/kg in data set [1] (setting [3]) turned out to be 27.1%. For the same molecule, in data set [1] (male SD rats, oral gavage 10 mg/kg, blood after 2 hrs, ADP 5 μM), the inhibition at 10 mg/kg came out at 55.3%. For the molecule `COC(=O)[C@H](c1ccccc1Cl)N1CCc2sccc2C1` [clopidogrel], the “share of the prototype drug hydrolyzed by hCE1 in the liver into an inactive carboxylic derivative” value in data set [2] is recorded as 85%.
